Results reported in patent US20230414555A1, “USE OF DIHYDROMYRICETIN AS EPIGENETIC ACTIVE INGREDIENT FOR COSMETIC OR DERMATOLOGICAL SKIN CARE” (BEIERSDORF AG, priority 2020, published 2023).

Experiments:
[1] = test system: DNA methylation of 850 000 CpGs in the epidermis; test: in vivo study: epidermal DNA methylation by EPIC technology after cream application and UV irradiation; conditions: verum cream on lower back for two weeks, UV 0.8 MED on three consecutive days, compared to unirradiated control, n=32, FIG. 2
Procedure: To this end, test subjects (n=32) applied cream comprising a vehicle and a verum including dihydromyricetin to the lower back for two weeks. After the two-week treatment period, the test subjects were irradiated with UV (0.8 MED) on three consecutive days in order to imitate an age-relevant environmental influence. 24 hours after the final UV irradiation, suction blisters were produced and the epidermis was harvested. The DNA was isolated from the epidermis and the state of the DNA methylation of 850 000 CpGs was determined by means of EPIC technology from Illumina.

recombinant DNMT1 enzyme = molecular target: T1, recombinant DNMT1 enzyme (Homo sapiens, UniProt P26358); test: cell-free DNMT Activity/Inhibition Assay (Active Motif); assay type: biochemical; conditions: manufacturer's standard protocol, FIG. 1
T1 construct: purchased Active Motif, Belgium
T1 sequence (P26358 whole entry): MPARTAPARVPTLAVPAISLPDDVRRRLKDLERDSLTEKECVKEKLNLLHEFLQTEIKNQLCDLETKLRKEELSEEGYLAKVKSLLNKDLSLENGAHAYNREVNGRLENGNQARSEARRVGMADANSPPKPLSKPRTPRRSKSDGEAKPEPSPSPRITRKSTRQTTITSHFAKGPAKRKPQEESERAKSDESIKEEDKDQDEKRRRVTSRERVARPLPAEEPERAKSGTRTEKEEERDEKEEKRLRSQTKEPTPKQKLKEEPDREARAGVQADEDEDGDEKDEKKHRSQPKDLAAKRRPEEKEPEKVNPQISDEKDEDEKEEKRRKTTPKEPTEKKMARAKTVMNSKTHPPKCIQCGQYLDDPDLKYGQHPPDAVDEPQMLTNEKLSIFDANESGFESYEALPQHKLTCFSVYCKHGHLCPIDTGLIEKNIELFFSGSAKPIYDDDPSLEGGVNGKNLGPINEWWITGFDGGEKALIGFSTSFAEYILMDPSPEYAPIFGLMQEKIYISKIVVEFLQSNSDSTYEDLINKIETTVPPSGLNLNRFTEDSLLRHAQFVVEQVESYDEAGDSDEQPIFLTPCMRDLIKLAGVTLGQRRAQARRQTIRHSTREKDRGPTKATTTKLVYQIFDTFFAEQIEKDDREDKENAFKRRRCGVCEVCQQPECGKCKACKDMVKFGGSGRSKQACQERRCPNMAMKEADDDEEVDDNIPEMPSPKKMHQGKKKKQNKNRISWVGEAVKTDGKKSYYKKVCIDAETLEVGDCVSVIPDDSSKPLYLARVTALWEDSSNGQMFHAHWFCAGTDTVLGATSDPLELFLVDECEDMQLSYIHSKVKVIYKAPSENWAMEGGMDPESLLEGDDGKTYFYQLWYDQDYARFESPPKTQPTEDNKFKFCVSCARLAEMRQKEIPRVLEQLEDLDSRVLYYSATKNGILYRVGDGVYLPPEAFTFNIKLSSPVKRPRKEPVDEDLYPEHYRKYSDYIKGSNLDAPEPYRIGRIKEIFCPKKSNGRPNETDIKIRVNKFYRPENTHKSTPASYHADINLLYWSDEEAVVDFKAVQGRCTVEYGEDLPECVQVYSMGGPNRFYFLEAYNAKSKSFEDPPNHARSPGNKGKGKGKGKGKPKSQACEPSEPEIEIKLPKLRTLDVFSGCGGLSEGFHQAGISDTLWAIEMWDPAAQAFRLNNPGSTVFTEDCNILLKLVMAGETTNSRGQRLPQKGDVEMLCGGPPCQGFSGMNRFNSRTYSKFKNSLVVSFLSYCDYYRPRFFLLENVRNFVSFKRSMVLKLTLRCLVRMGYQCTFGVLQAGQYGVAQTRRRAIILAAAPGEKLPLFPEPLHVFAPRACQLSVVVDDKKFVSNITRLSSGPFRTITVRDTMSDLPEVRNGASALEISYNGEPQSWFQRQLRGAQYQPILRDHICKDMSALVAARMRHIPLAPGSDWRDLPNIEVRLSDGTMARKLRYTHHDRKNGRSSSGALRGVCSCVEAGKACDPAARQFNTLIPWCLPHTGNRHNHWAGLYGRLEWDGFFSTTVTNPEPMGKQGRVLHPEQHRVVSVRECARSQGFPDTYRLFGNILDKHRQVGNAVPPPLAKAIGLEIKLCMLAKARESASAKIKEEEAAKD
Excerpt: Here, the assay manufacturer's standard protocol was used.

[2] = test system: expression of 45 genes in the epidermis; test: in vivo study: gene expression in epidermis (TaqMan) after eight weeks of cream application; conditions: verum cream on inner forearm for eight weeks, 19 test subjects (50-65 years), 45 genes analyzed, ΔΔCt method, FIG. 3
Procedure: To this end, 19 test subjects (50-65 years) applied cream comprising a vehicle and a verum including dihydromyricetin to the inner forearm over a period of eight weeks. Suction blisters were then produced and the epidermis was harvested. The RNA was isolated from the epidermis samples (RNeasy Fibrous Tissue Kit, Qiagen, Hilden) and the expression of 45 genes (+3 endogenous control genes) was analyzed using the TaqMan system (7900HT Fast Real-Time PCR System, Applied Biosystems). […] The changes in expression were calculated using the ΔΔCt method.

inhibition of the recombinant DNMT1 enzyme (recombinant DNMT1 enzyme): concentration-dependent inhibition
SMILES: O=C1c2c(O)cc(O)cc2O[C@H](c2cc(O)c(O)c(O)c2)[C@H]1O [dihydromyricetin, (2R,3R)-3,5,7-trihydroxy-2-(3,4,5-trihydroxyphenyl)chroman-4-one]
methylation changes at CpGs at which the vehicle-treated area did not show any significant methylation changes [1]: 16 389 CpGs
genes with significant increase in expression in comparison to vehicle-treated control samples [2]: 16 genes
